“Also recorded” adds a separate entry of the source. Residues, ends and D or L forms follow the SMILES beside them. *: point of attachment. Cbz = O=C(OCc1ccccc1)*

Type in all cases: cell-based
Series [1] has as its system CFTR-ΔF508. The series is described as follows: Immunoblot for GFP-tagged CFTR-ΔF508 expressed in HEK293 cells (endoglycosidase H treated extracts). As to conditions: for accumulation of CFTR-ΔF508 (intensity of staining compared to control lane 4): treated overnight (16 h). More on the design: accumulation of CFTR-ΔF508 (intensity of staining compared to control lane 4): unit of the concentration uncertain. As for the experimental part: HEK293 cells (1*10^6 cells) were transfected with plasmids encoding CFTR or CFTR-ΔF508 (GFP-tagged) and/or co-transfected with effector plasmids. After 16 h, the cells were treated with the varying concentrations of compounds. After 24 h, the cells were harvested in phosphate-buffered saline, lysed by a freeze-thaw cycle and homogenized by sonication. The homogenate was resuspended in reducing Laemmli sample buffer (50 mM Tris.Hcl, pH 6.8, 20% glycerol, 0.1% bromophenol blue, 2% SDS and 20 mM dithiothreitol); aliquots (15% of the original culture) were resolved on a denaturing polyacrylamide gel (monomer concentration in the stacking gel and in the running gel 4 and 8% respectively) and electrophoretically transferred to a nitrocellulose membrane. Immunodetection was done with an antiserum directed against GFP as the primary antibody and an anti-rabbit IgG coupled to horseradish peroxidase as the secondary antibody.
In a first example, Membranes from transfected cells were prepared and immunoblotted for GFP-tagged CFTR or CFTR-ΔF508, respectively (by using an antibody directed against the fluorescent protein).
The membrane extract was also treated endoglycosidase H. The rationale for this experiment is as follows: membrane proteins are core glycosylated in the endoplasmatic reticulum. Core glycosylation is sensitive to endoglycosidase H. If the protein has reached the Golgi (and then trafficked to the plasma membrane), it acquires additional sugar moieties and becomes resistant to endoglycosidase H. It is evident from lane 3 in FIG. 1 that endoglycosidase H treatment reduces the apparent size of CFTR; thus, the bulk of the protein is still in the ER. The following lanes examine the expression of CFTR-ΔF508 (all extracts were treated with endoglycosidase H): lane 4 is the control, that is cells expressing CFTR-ΔF508; in lanes 5, 6, 7 and 8 cells expressing CFTR-ΔF508 were treated overnight (i.e. for 16 h) with 100 nM MG132, […], […] and 100 nM bortezomib, respectively.

Series [2] deals with CFTR-ΔF508. The series is described as follows: FACS monitoring of expression of GFP-tagged CFTR-ΔF508 in HEK293 cells. Particulars: for CFTR-ΔF508-associated fluorescence (expression level) versus control: 24 h. As for the experimental part: (§1) Cultured HEK293 cells were transfected with plasmids encoding CFTR or CFTR-ΔF508 (GFP-tagged) and/or co-transfected with plasmids encoding USP4 (or an appropriate control plasmid) by using the CaPO4-precipitation method. Sixteen hours after transfection the cells were treated with varying concentrations of compounds. At a specific time point (here 24 h) the cells are trypsinized, fixed in ethanol, permeabilized and stained with propidium iodide (PI). The stained cells are subjected to FACS analysis
Because CFTR is tagged with a fluorescent protein, expression in individual cells can be monitored by fluorescence activated cell sorting (FACS). By contrast with fluorescence microscopy (where individual cells are picked), FACS allows to survey the entire cell population. In addition, FACS has the advantage that it allows for reasonable sample throughput; finally, automation and scale-up is readily possible.
The original data set is shown on the right hand side of the figures, respectively (see e.g. FIG. 2c): the x-axis is the propidium iodide fluorescence (note that the scale is linear). The y-axis is the GFP-fluorescence (=fluorescence associated with CFTR; note that the scale is logarithmic) and each dot corresponds to a cell. The quadrangle delineates the cells that express CFTR.

The subject of a further series is HEK293 cells. Description: FACS propidium iodide staining: cell cycle distribution / apoptosis of transfected HEK293 cells. On the procedure: as §1
Transiently transfected HE 293 cells were fixed in ethanol 24 h after transfection as mentioned above and then stained with propidium iodide to label the DNA: the rationale was to examine the distribution of cells in the cell cycle (=to see if the expression of CFTR or of CFTR-ΔF508 was toxic or if the compounds employed killed the cells/drove them into apoptosis).
One can plot the cell counts against the propidium iodide fluorescence of the transfected cells (such as shown in, for example, FIG. 2b): This gives a peak of cells (denoted by M1) that have a 2n content of DNA (G1-cells), a shoulder of cells that have a DNA content of larger than 2n (denoted by M3 and representing cells that are in S-phase) and a second peak of cells that have a DNA content of 4n (denoted by M2 and representing cells in G2 and M-phase).

Where [3] appears, read: cells cotransfected with plasmid driving expression of USP4.

Consider `O=C1N[C@@H]2[C@@H](O)[C@@H](O)[C@H](O)[C@@H](CO)N2C1=O` [kifunensine], for which, in the series with CFTR-ΔF508 [1] (20 (unit uncertain)), the “accumulation of CFTR-ΔF508 (intensity of staining compared to control lane 4)” value was “led to the accumulation of CFTR-ΔF508”.

As to `CC(C)C[C@H](NC(=O)[C@H](Cc1ccccc1)NC(=O)c1cnccn1)B(O)O` [Bortezomib, N-(2-pyrazine)carbonyl-L-phenylalanine-L-leucine-boronic acid], the “relative effectiveness in accumulation of CFTR-ΔF508, 100 nM versus 1 μM” value with CFTR-ΔF508 [1] (100 nM compared with 1 μM, 16 h) is reported as “more effective than 1 μM bortezomib”. Moreover, the “accumulation of CFTR-ΔF508 (intensity of staining compared to control lane 4)” value with CFTR-ΔF508 [1] (100 nM) and with CFTR-ΔF508 [1] (1 (unit uncertain)) was “led to the accumulation of CFTR-ΔF508” throughout. The “CFTR-ΔF508-associated fluorescence (expression level) versus control” value in the series with CFTR-ΔF508 [2] (10 nM, HEK293 cells) is listed as “expression of CFTR is increased; also recorded: substantially increases the level of CFTR-ΔF508”; with CFTR-ΔF508 [2] (100 nM, HEK293 cells), “expression of CFTR is increased”. The “cell cycle distribution of CFTR-ΔF508 expressing cells versus control” value in the series with HEK293 cells (10 nM, HEK293 cells) is given as “essentially the same as the one shown in control cells”. In addition, the “number of cells with low propidium iodide fluorescence (apoptotic cells)” value with HEK293 cells (100 nM, HEK293 cells) was “number of cells with low propidium iodide fluorescence increases”; in the series with HEK293 cells (1 μM, HEK293 cells), “number of cells with low propidium iodide fluorescence increases”. Also, the “peak of the G1-cells (M1) in cell cycle distribution” value was “greatly reduced” in the series on HEK293 cells (100 nM, HEK293 cells) and “greatly reduced” in the series on HEK293 cells (1 μM, HEK293 cells).

“USP-4: deubiquitinating enzyme (ubiquitin specific protease), co-expressed in cells from a transfected plasmid”: the “CFTR-ΔF508-associated fluorescence versus control” value in the series with CFTR-ΔF508 [2] (setting [3]) is “CFTR-ΔF508-associated fluorescence increases”. For the same compound, the “toxicity / apoptosis (cell cycle distribution, sub-2n fraction)” value in the series on HEK293 cells (setting [3]) is “not toxic and does not cause apoptosis”.

For `CC(C)C[C@@H](C=O)NC(=O)[C@H](CC(C)C)NC(=O)[C@H](CC(C)C)NC(=O)OCc1ccccc1` [MG132] (Cbz-Leu-Leu-Leu-aldehyde), the CFTR-ΔF508-expression result in the series with CFTR-ΔF508 [2] (1 μg, HEK293 cells) is on record as “enhances CFTR-ΔF508-expression”. Further, in the series on HEK293 cells (1 μg, HEK293 cells), the apoptotic effect result is on record as “pronounced apoptotic effect”.
